Patent US20120107323A1, “KINASE PROTEIN BINDING INHIBITORS” (University of Florida, priority 2009, published 2012)

What was measured:
[1] = test system: insulin receptor, VEGFR-1, AKT-1, EGFR, VEGFR-2, c-MET, PDGFRa, p70S6K, Src and PI3Kinase; experiment: Kinase profiler screening, other protein kinases; type: biochemical; conditions: 1 μM compound
Protocol: Kinase Profiler Screening: Kinase specificity screening was performed with Invitrogen's SelectScreen® Kinase Profiling Services http://www.invitrogen.com/site/us/en/home/Products-and-Services/Services/Discoverv-Research/SelectScreen-Profiling-Service/SelectScreen-Kinase-Profiling-Service.html. The screening was performed with 1 μM compound, INT2-31, 10 μM ATP, and kinase substrates against ten recombinant kinases according to Z′-LYTET™ Kinase Assay. For PI3 kinase activity, 100 μM ATP, and kinase substrate were utilized with the Invitrogen Adapta® Universal Kinase Assay protocol. Tumor Growth in Nude Mice in vivo: Six week old athymic, female nude mice were purchased from Harlan Laboratory. The mice were maintained in the animal facility, and all experiments were performed in compliance with NIH animal-use guidelines and under an IACUC approved protocol. Melanoma cells were injected, 5×10^6 cells, subcutaneously. When the tumor size reached 100 mm^3, the INT2-31 was introduced by intraperitoneal injection at a dose of 15 mg/kg daily for 21 days. Tumor diameters were measured with calipers, and tumor volume in mm^3 was calculated using the formula [(width)^2×length]/2. At the end of experiment, tumor weight and volume were determined.

[2] = test system: KYSE180 esophageal cancer cells; experiment: Cell viability (MTT), KYSE180; type: cell-based; conditions: Homo sapiens, KYSE-180; KYSE180, 72 hours; read-out: IC50 of INT2-31, cell viability
Protocol: (§1) Cell viability (MTT) and CFSE Proliferation assay: Cells were plated in 96-well plates and let adhere overnight. After cell treatment, cell viability was measured by 3-(4,5-dimethylthiazol-2-yl)-2,5-diphenyl tetrazolium bromide (MTT) assay (CellTiter 96® Aqueous, Promega, Madison, Wis.).
Cell viability and detachment assays: After cells were treated with siRNA transfection, cell viability was measured by 3-(4,5-dimethylthiazol2-yl)-2,5-diphenyl tetrazolium bromide (MTT) assay (CellTiter 96® AQueous, Promega, Madison, Wis.). Briefly, 20 μl of the tetrazolium compound was added to each well. The cells were then incubated at 37° C. for 1 h. The plate was read at 490 nm with a plate reader to determine the viability. In detachment assays, detached and attached cells were harvested separately and counted in a hemocytometer. The percentage of detachment was calculated by dividing the number of detached cells by the total number of cells. Apoptosis assays: After treatment, attached and detached cells were collected, counted and prepared for terminal uridine deoxynucleotidyl transferase (TUNEL) assay by utilizing an APO-BRDU kit (BD Pharmingen, San Diego, Calif.) according to the manufacturer's instructions. Stained cells were analyzed with a fluorescence-activated cell sorting-Calibur flow cytometer (BD Biosciences). […] Apoptotic cells were also analyzed by Hoechst staining. […]

C8161 melanoma cells = experiment: Cell viability (MTT), C8161; type: cell-based, human
Protocol: as §1
(§2) Cell viability and detachment assays: After cells were treated with siRNA transfection, cell viability was measured by 3-(4,5-dimethylthiazol2-yl)-2,5-diphenyl tetrazolium bromide (MTT) assay (CellTiter 96® AQueous, Promega, Madison, Wis.). Briefly, 20 μl of the tetrazolium compound was added to each well. The cells were then incubated at 37° C. for 1 h. The plate was read at 490 nm with a plate reader to determine the viability. In detachment assays, detached and attached cells were harvested separately and counted in a hemocytometer. The percentage of detachment was calculated by dividing the number of detached cells by the total number of cells. Apoptosis assays: After treatment, attached and detached cells were collected, counted and prepared for terminal uridine deoxynucleotidyl transferase (TUNEL) assay by utilizing an APO-BRDU kit (BD Pharmingen, San Diego, Calif.) according to the manufacturer's instructions. Stained cells were analyzed with a fluorescence-activated cell sorting-Calibur flow cytometer (BD Biosciences). Calculation of the percentage of apoptotic cells in the sample was completed with CellQuest software (BD Biosciences). Apoptotic cells were also analyzed by Hoechst staining. Hoechst 33342 ([…]) was added to the fixed cells and the specimens were mounted on glass coverslips. The slides were viewed under the Zeiss microscope for apoptotic nuclei. The percent of apoptotic cells was calculated as the ratio of apoptotic cells to total number of cells.
In addition, the effect of INT2-31 on cell viability of esophageal, pancreatic and breast cancer cell lines was analyzed and the IC50 value for each cell line was determined, as shown in Table 1. […] Similar to melanoma results, INT2-31 inhibits viability more in cancer cells compared to normal cells. Sensitivity of the cells to INT2-31 varied and directly correlated to the FAK and IGF-1R expression level of the cells.
To determine the effect on melanoma cell viability, three human melanoma cell lines were exposed to increasing doses of INT2-31 for 72 h and the results compared to human melanocytes. […] The effects of INT2-31 varied in the three cell lines and was possibly related to constitutive FAK and IGF-1R activation with the least sensitive cell line (SK-MEL-28) having the greatest expression of FAK and IGF-1R.

[3] = Previous toxicity testing at 50 mg/kg/day; type: in vivo, mice; conditions: 50 mg/kg/day i.p.
IGF-1R+/+ and −/− MEFs = experiment: MTT assay on IGF-1R wildtype and null fibroblasts; type: cell-based, mouse
Protocol: as §1
Cell proliferation assay: Cell proliferation assay (Promega) using CellTiter 96 aqueous one solution was performed by adding a small amount of the One Solution Reagent directly to culture wells, incubating for 1-4 hours and then recording absorbance at 490 nm with a spectrophotometric plate reader. The quantity of formazan product as measured by the amount of 490 nm absorbance was directly proportional to the number of living cells in culture.
as §2

CSc1ncnc2c1ccn2C1O[C@H](COP(=O)(O)O)[C@@H](O)[C@H]1O (stereo partly drawn) [INT2-31, 4-(Methylthio)-7-(5-O-phosphono-D-ribofuranosyl)-{7H-Pyrrolo[2,3-d]pyrimidine}]
inhibition of any of the other protein kinases [1]: ≤ 22% | IC50 [2]: 19.8 µM | cell viability (in words) (C8161 melanoma cells; C8161, MTT): inhibited cell viability in a dose-dependent manner | IC50 (C8161 melanoma cells; Homo sapiens, C8161, 72 hours, read-out: IC50 of INT2-31, cell viability): 0.5 µM | sensitivity of C8161 cells expressing FAK shRNA compared to parental and mock transfected cells (C8161 melanoma cells; MTT, FAK shRNA1 knockdown): significantly less sensitive | toxicity [3]: no measurable toxicity | proliferation of IGF-1R+/+ fibroblast cells (IGF-1R+/+ and −/− MEFs; 0.05 μM, 72-hour treatment): reduced the proliferation | proliferation of IGF-1R−/− cells (IGF-1R+/+ and −/− MEFs; 0.05 μM, 72-hour treatment): no effect | effect on IGF-1R wildtype compared to null fibroblasts (IGF-1R+/+ and −/− MEFs; MTT, p<0.05): significantly less sensitive
